# Results from ChEMBL document CHEMBL5357034, “Antimicrobial and Anti-inflammatory Cyclic Tetrapeptides from the Co-cultures of Two Marine-Derived Fungi” (2024).
# Square brackets hold non-standard residues; d marks the D form. Peptide text beside a SMILES is read from it. NMeA = CN[C@@H](C)C(=O)O
# Experiments:
# Format in all cases: functional
# [1] = tested on: Edwardsiella tarda; test: Antimicrobial activity against Edwardsiella tarda ATCC15947 assessed as inhibition of microbial growth incubated for 24 hrs by broth microdilution method
# [2] = tested on: Edwardsiella tarda; test: Antimicrobial activity against Edwardsiella tarda QDIO-2 assessed as inhibition of microbial growth incubated for 24 hrs by broth microdilution method
# [3] = tested on: Edwardsiella ictaluri; test: Antimicrobial activity against Edwardsiella ictaluri ATCC33202 assessed as inhibition of microbial growth incubated for 24 hrs by broth microdilution method
# [4] = tested on: Staphylococcus aureus; test: Antimicrobial activity against Staphylococcus aureus ATCC 29213 assessed as inhibition of microbial growth incubated for 24 hrs by broth microdilution method
# [5] = tested on: Staphylococcus aureus; test: Antimicrobial activity against methicillin-resistant Staphylococcus aureus ATCC 33591 assessed as inhibition of microbial growth incubated for 24 hrs by broth microdilution method
# [6] = tested on: Staphylococcus aureus; test: Antimicrobial activity against methicillin-resistant Staphylococcus aureus ATCC R6101 assessed as inhibition of microbial growth incubated for 24 hrs by broth microdilution method
# [7] = tested on: Bacillus subtilis; test: Antimicrobial activity against Bacillus subtilis ATCC 6633 assessed as inhibition of microbial growth incubated for 24 hrs by broth microdilution method
# [8] = tested on: Escherichia coli; test: Antimicrobial activity against Escherichia coli ATCC 25922 assessed as inhibition of microbial growth incubated for 24 hrs by broth microdilution method
# [9] = tested on: Acinetobacter baumannii; test: Antimicrobial activity against Acinetobacter baumannii 2799 assessed as inhibition of microbial growth incubated for 24 hrs by broth microdilution method
# [10] = tested on: Pseudomonas aeruginosa; test: Antimicrobial activity against Pseudomonas aeruginosa ATCC 27853 assessed as inhibition of microbial growth incubated for 24 hrs by broth microdilution method
# [11] = tested on: Candida albicans; test: Antimicrobial activity against Candida albicans ATCC 10213 assessed as inhibition of microbial growth incubated for 24 hrs by broth microdilution method
# [12] = tested on: RAW264.7; test: Anti-inflammatory activity in LPS-induced mouse RAW264.7 cells assessed as inhibition of IL-6 production at 10 uM preincubated with compound for 24 hrs followed by compound replacement with DMEM media and measured 6 hrs after LPS stimulation by qRT-PCR analysis relative to control
# [13] = tested on: RAW264.7; test: Anti-inflammatory activity in LPS-induced mouse RAW264.7 cells assessed as inhibition of MCP-1 production at 10 uM preincubated with compound for 24 hrs followed by compound replacement with DMEM media and measured 6 hrs after LPS stimulation by qRT-PCR analysis relative to control
# [14] = tested on: RAW264.7; test: Anti-inflammatory activity in LPS-induced mouse RAW264.7 cells assessed as inhibition of TNF-alpha production at 10 uM preincubated with compound for 24 hrs followed by compound replacement with DMEM media and measured 6 hrs after LPS stimulation by qRT-PCR analysis relative to control
Compound,MIC [1],MIC [2],MIC [3],MIC [4],MIC [5],MIC [6],MIC [7],MIC [8],MIC [9],MIC [10],MIC [11],inhibition at 10 µM [12],inhibition at 10 µM [13],inhibition at 10 µM [14]
CC[C@H](C)[C@@H]1NC(=O)[C@H]([C@@H](C)O)NC(=O)[C@H](Cc2ccccc2)NC(=O)[C@H](C)N(C)C1=O (cyclo(FTI[NMeA])),> 128 µg/mL,128 µg/mL,128 µg/mL,> 128 µg/mL,> 128 µg/mL,> 128 µg/mL,> 128 µg/mL,> 128 µg/mL,> 128 µg/mL,> 128 µg/mL,> 128 µg/mL,61%,56%,13%
CN[C@H](CC(C)C)C(=O)N[C@H]1C(=O)N[C@@H](CC(N)=O)C(=O)N[C@H]2C(=O)N[C@H]3C(=O)N[C@H](C(=O)N[C@H](C(=O)O)c4cc(O)cc(O)c4-c4cc3ccc4O)[C@H](O)c3ccc(c(Cl)c3)Oc3cc2cc(c3O[C@@H]2O[C@H](CO)[C@@H](O)[C@H](O)[C@H]2O[C@H]2C[C@](C)(N)[C@H](O)[C@H](C)O2)Oc2ccc(cc2Cl)[C@H]1O [VANCOMYCIN],> 128 µg/mL,> 128 µg/mL,> 128 µg/mL,,,> 128 µg/mL,< 0.25 µg/mL,128 µg/mL,64 µg/mL,> 128 µg/mL,< 0.25 µg/mL,,,
CO[C@H]1/C=C/O[C@@]2(C)Oc3c(C)c(O)c4c(O)c(c(/C=N/N5CCN(C)CC5)c(O)c4c3C2=O)NC(=O)/C(C)=C\C=C\[C@H](C)[C@H](O)[C@@H](C)[C@@H](O)[C@@H](C)[C@H](OC(C)=O)[C@@H]1C [RIFAMPIN],2 µg/mL,4 µg/mL,8 µg/mL,< 0.25 µg/mL,< 0.25 µg/mL,8 µg/mL,< 0.25 µg/mL,4 µg/mL,1 µg/mL,8 µg/mL,< 0.25 µg/mL,,,
CC[C@H](C)[C@@H]1NC(=O)[C@H]([C@@H](C)O)NC(=O)[C@H](Cc2ccc(OC)cc2)NC(=O)[C@@H]2CCCN2C1=O (cyclo(IPY(Me)T)),> 128 µg/mL,> 128 µg/mL,> 128 µg/mL,> 128 µg/mL,> 128 µg/mL,> 128 µg/mL,> 128 µg/mL,> 128 µg/mL,> 128 µg/mL,> 128 µg/mL,> 128 µg/mL,63%,42%,16%
CC[C@H](C)[C@@H]1NC(=O)[C@H]([C@@H](C)O)NC(=O)[C@H](Cc2ccc(OC)cc2)NC(=O)[C@H](C)N(C)C1=O (cyclo(I[NMeA]Y(Me)T)),128 µg/mL,> 128 µg/mL,64 µg/mL,> 128 µg/mL,> 128 µg/mL,> 128 µg/mL,> 128 µg/mL,> 128 µg/mL,> 128 µg/mL,> 128 µg/mL,> 128 µg/mL,55%,44%,24%
COc1ccc(C[C@@H]2NC(=O)[C@H](C)N(C)C(=O)[C@H](CC(C)C)NC(=O)[C@H]([C@@H](C)O)NC2=O)cc1 (cyclo(L[NMeA]Y(Me)T)),128 µg/mL,> 128 µg/mL,> 128 µg/mL,> 128 µg/mL,> 128 µg/mL,> 128 µg/mL,> 128 µg/mL,> 128 µg/mL,> 128 µg/mL,> 128 µg/mL,> 128 µg/mL,55%,41%,15%
CC(C)Cc1cnc(CC(C)C)c(=O)[nH]1,128 µg/mL,128 µg/mL,64 µg/mL,> 128 µg/mL,> 128 µg/mL,> 128 µg/mL,> 128 µg/mL,> 128 µg/mL,> 128 µg/mL,> 128 µg/mL,> 128 µg/mL,,,
CC[C@H](C)[C@@H]1NC(=O)[C@H](C)NC(=O)[C@H](Cc2ccc(OC)cc2)NC(=O)[C@H](C)N(C)C1=O (cyclo(AI[NMeA]Y(Me))),,,,,,,,,,,,67%,12%,6.6%
CC(C)Cc1ncc([C@@H](O)C(C)C)n(O)c1=O,128 µg/mL,128 µg/mL,64 µg/mL,32 µg/mL,16 µg/mL,> 128 µg/mL,128 µg/mL,> 128 µg/mL,128 µg/mL,> 128 µg/mL,32 µg/mL,,,
